This is an account of results in patent US9258995B2, “Organ cold storage composition and methods of use” (BOARD OF TRUSTEES OF THE UNIVERSITY OF ARKANSAS, priority 2009, dated 2016).

The test system of series [1] is rat kidneys. The experiment in a line: TUNEL staining of renal cell death during CS. The settings on record: 4 h CS, 100 μM. How it is done:
All animals were treated according to the National Institutes of Health Guide for the Care and Use of Laboratory Animals and the University of Arkansas for Medical Sciences Institutional Animal Care and Use Committee guidelines. Male Fischer 344 inbred rats (Charles Rivers Laboratories, Inc., Wilmington, Mass.) weighing between 250 and 300 g were anesthetized with ethrane, followed by shaving and prepping with betadine. […] Bulldog clamps were placed on the aorta and vena cava (proximal and distal to the renal vessels) to prevent blood flow to the kidneys. A 22-gauge surgical needle was used to puncture the rat's aorta to flush the renal grafts with saline (10 ml per kidney) using a small catheter. Once the kidneys started to turn light brown (perfusion), another vent was formed in the vena cava to allow blood flow from the kidneys. […]
Cell cytotoxicity was determined using the LDH-Cytotoxicity Assay Kit II (Biovision Research Products, Mountain View, Calif.) according to the manufacturer's instructions. Absorbance was measured at 450 nm using a SpectraMax 190 microplate reader and SpectraMax software (Molecular Devices, Sunnyvale, Calif.). Renal cell death was determined using TUNEL staining. […] The amount of cell death was calculated by averaging the number of cells positive for TUNEL (brown staining) in 10 different fields (cortex and medulla) (20×). […]

The test system of series [2] is mitochondrial respiratory complex I. The experiment in a line: Mitochondrial respiratory complex activity, rat kidney mitochondria after CS. The note with it: rat kidneys, 4-h CS, 100 μM. How it is done:
(§1) All animals were treated according to the National Institutes of Health Guide for the Care and Use of Laboratory Animals and the University of Arkansas for Medical Sciences Institutional Animal Care and Use Committee guidelines. Male Fischer 344 inbred rats (Charles Rivers Laboratories, Inc., Wilmington, Mass.) weighing between 250 and 300 g were anesthetized with ethrane, followed by shaving and prepping with betadine. […] Bulldog clamps were placed on the aorta and vena cava (proximal and distal to the renal vessels) to prevent blood flow to the kidneys. A 22-gauge surgical needle was used to puncture the rat's aorta to flush the renal grafts with saline (10 ml per kidney) using a small catheter. Once the kidneys started to turn light brown (perfusion), another vent was formed in the vena cava to allow blood flow from the kidneys. Once both kidneys were completely flushed, the right kidney was recovered and served as a control (group 1), and the left kidney was exposed to CS alone for 4 h at 4° C. (group 2). In additional experiments, kidneys were flushed with saline through the aorta using a small catheter followed by flushing the right kidney with saline containing MitoQ (100 μM) and the left kidney with saline containing DecylTPP (100 μM) (10 ml per kidney). Tissues were recovered and stored in CS+MitoQ (100 μM; right kidney) or CS+DecylTPP (100 μM; left kidney) for 4 h at 4° C. (groups 3 and 4, respectively). A thin middle section from all of the kidneys were cut and immediately fixed in 10% formalin before being embedded in paraffin for sectioning (4 μm) and histological evaluation. The remaining portion of the kidneys were quickly frozen in liquid nitrogen and stored in −80° C. until needed for biochemistry analyses.
(§2) NRK cell and rat kidney mitochondria were isolated by centrifugation on a sucrose density gradient. The activity of mitochondrial respiratory complexes I, II, III, or IV were assayed spectrophotometrically using 100 μg of mitochondrial protein at 30° C. as previously described.

The test system of series [3] is mitochondrial respiratory complex II. The series is described as above. The settings on record: rat kidneys, 4-h CS, 100 μM. How it is done: as §1, §2
Series [4] has as its system porcine renal mitochondrial respiratory complex II/III. Kind of series: Mitochondrial respiratory complex activity, porcine ex vivo renal model. Further details: protection of porcine complex II/III: dose or concentration left out as unconfirmed. As for the experimental part: (§3) FIG. 15 depicts graphs showing activities or (A) porcine renal mitochondrial respiratory complex I, (B) activities or porcine renal mitochondrial respiratory complex II/III, and (C) activities or porcine renal mitochondrial respiratory complex IV, after MitoQ treatment. MitoQ ([…]) protected porcine complex II/III following 24 hr cold preservation. Values are expressed as mean SEM (n=4).
(§4) Mitochondrial respiratory complex activity was also evaluated in the porcine ex vivo renal model at 24-h and 48-h CS. […] Protection of Complex II/III by MitoQ (100 μM) was significant following 24-h cold preservation.

For series [5] the following is noted: two phase II clinical trials for Parkinson's disease and hepatitis C virus; cited from earlier work.
In series [6] the test system is porcine renal mitochondrial respiratory complex I. The experiment in a line: Mitochondrial respiratory complex activity, porcine ex vivo renal model. As for the experimental part: as §3, §4
The test system of series [7] is porcine renal mitochondrial respiratory complex IV. The series is described as above. How it is done: as §3, §4
In series [8] the test system is rat kidneys. The experiment in a line: MitoSOX Red mitochondrial superoxide generation, cold storage ex vivo model. How it is done: as §1, with “A thin middle section from all of the kidneys were cut and immediately fixed in 10% formalin before being embedded in paraffin for sectioning (4 μm) and histological evaluation. The remaining portion of the kidneys were quickly frozen in liquid nitrogen and stored in −80° C. until needed for biochemistry analyses.” left out
MitoSOX Red (Invitrogen) was used to measure mitochondrial superoxide generation during CS. […] Fluorescence was visualized using an Eclipse E800 microscope (Nikon, Melville, N.Y.) with a rhodamine filter using a water immersion objective (60×). Fluorescent images of NRK cells were captured with equal exposure times and quantified by averaging the mean intensity fluorescence of five random cells in three different fields using Nikon N is Elements software. In separate experiments, cells were grown on coverslips, preloaded with MitoSOX Red before treatment (groups 1-4), and evaluated for mitochondrial superoxide generation using a Hitachi F-2500 spectrofluorometer (Hitachi, Tokyo, Japan) equipped with a coverslip holder using two different excitation wavelengths: 396 and 510 nm with the emission measured at 580 nm as previously described. In addition, rat kidneys were monitored for mitochondrial superoxide generation by flushing kidneys with saline through the aorta using a small catheter as described under Cold Storage Ex Vivo Model, followed by saline containing MitoSOX Red (5 μM; 10 ml/kidney) before treatment (groups 1-4). Paraffin sections were analyzed using the rhodamine filter on the Nikon Eclipse 800 microscope (20×).

Series [9] has as its system rat kidneys. Kind of series: Rodent model of warm ischemia/reperfusion (I/R). Type of series: in vivo. The settings on record: rat kidneys following warm I/R; MitoQ 48 hr oral; 100 μM. From the text:
Rodent models of warm ischemia/reperfusion (I/R) (FIGS. 6-7) and cold renal preservation, as well as renal cell models of cold storage (FIG. 3-5) were used to evaluate the effectiveness of MitoQ in preventing renal damage during ischemia. […] In addition, Mito Q blunted mitochondrial superoxide production (Mitosox Red staining) and respiratory complex dysfunction following cold preservation (FIGS. 4-5).

For another series, the system named is NRK cells. Kind of series: Available nitric-oxide levels, CS NRK cell model. The class given is cell-based, rat. The note with it: 4-h CS (data not shown). From the text: Nitric oxide is a free radical that is well known to interact with superoxide to form peroxynitrite. It is generated by nitric-oxide synthase (NOS) and is an important signaling molecule in many physiological processes. Few reports have evaluated the effect of cold ischemia alone on NOS protein levels or activity.

Turning to `COC1=C(OC)C(=O)C(CCCCCCCCCC[P+](c2ccccc2)(c2ccccc2)c2ccccc2)=C(C)C1=O` [MitoQ, mitoquinone], the “decrease of cell death (TUNEL) compared with CS kidneys” value in the series on rat kidneys [1] is reported as ~2 fold. In [2], the “complex I inactivation” value is recorded as “protected”. Besides, the “complex II inactivation” value in series [3] is listed as “protected”. Also, in [4] (porcine ex vivo renal model), the “protection of Complex II/III activity, 24-h versus 48-h CS” value is “at 24-h better than at 48-h”. In addition, the “Protection of Complex II/III” value in series [4] (porcine kidneys, 24-h cold preservation, MitoQ (100 μM)) is reported as “significant”. Besides, the “protection of porcine complex II/III” value in [4] (porcine kidneys, 24 hr cold preservation) is listed as “protected”. Also, the safety and tolerability result in series [5] was “safe and well tolerated”. Besides, the “protection of Complex I activity, 24-h versus 48-h CS” value in series [6] is “at 24-h better than at 48-h”. Moreover, in [7], the “protection of Complex IV activity, 24-h versus 48-h CS” value was “at 24-h better than at 48-h”. For the same molecule, the “mitochondrial superoxide production (Mitosox Red staining)” value in the series on rat kidneys [8] (following cold preservation (Example 1)) is “blunted”. Besides, the “mitochondrial superoxide generation (MitoSOX Red)” value with rat kidneys [8] (rat kidneys, 4 h CS at 4° C., 100 μM) is listed as “markedly decreased”. Moreover, the “MitoSox Red staining (superoxide)” value with rat kidneys [8] (rat kidneys, cold storage 4 hr UW, 4° C., UW+MitoQ (100 µM), n=3) is “decreases”. For the same molecule, the MnSOD activity entry with rat kidneys [9] was “improved”. The available nitric-oxide levels result in the series with NRK cells was “no effect”.
